Assay results as given in PubChem BioAssay AID2060621 (Molecular Pharmacology Branch, DTP, NCI, 2025).
Several values for one entry are separate records, joined by “and”; a condition that tells them apart may be missing. Equal entries are not always repeated.

Test system: 324938-238-R-J1-PDC complex spheroids viability
Assay: Anticancer human tumor 324938-238-R-J1-PDC patient-derived bladder carcinoma cell line growth inhibition [CLK]
Conditions: for viability, T/C: stronger effect = lower value; active = viability on the fitted dose curve at most 10% of control; inactive = the rest
Procedure, shortened: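 Multi-cell-type spheroids combined patient-derived tumor cells with HUVEC endothelial cells and human mesenchymal stem cells. Paired agents were dosed in half-log steps down from about clinical Cmax, or from 10 microM where Cmax was unknown.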

[1] = curve of first compound, second compound 0.0316 µM
[2] = curve of first compound, second compound 0.1 µM
[3] = curve of first compound, second compound 0.316 µM
[4] = curve of first compound, second compound 1 µM
[5] = curve of first compound, second compound 3.16 µM
[6] = curve of first compound, second compound 10 µM
[7] = second compound 0.0316 µM, first compound 0.0316 µM
[8] = second compound 0.0316 µM, first compound 0.1 µM
[9] = second compound 0.0316 µM, first compound 0.316 µM
[10] = second compound 0.0316 µM, first compound 1 µM
[11] = second compound 0.0316 µM, first compound 3.16 µM
[12] = second compound 0.0316 µM, first compound 10 µM
[13] = second compound 0.1 µM, first compound 0.0316 µM
[14] = second compound 0.1 µM, first compound 0.1 µM
[15] = second compound 0.1 µM, first compound 0.316 µM
[16] = second compound 0.1 µM, first compound 1 µM
[17] = second compound 0.1 µM, first compound 3.16 µM
[18] = second compound 0.1 µM, first compound 10 µM
[19] = second compound 0.316 µM, first compound 0.0316 µM
[20] = second compound 0.316 µM, first compound 0.1 µM
[21] = second compound 0.316 µM, first compound 0.316 µM
[22] = second compound 0.316 µM, first compound 1 µM
[23] = second compound 0.316 µM, first compound 3.16 µM
[24] = second compound 0.316 µM, first compound 10 µM
[25] = second compound 1 µM, first compound 0.0316 µM
[26] = second compound 1 µM, first compound 0.1 µM
[27] = second compound 1 µM, first compound 0.316 µM
[28] = second compound 1 µM, first compound 1 µM
[29] = second compound 1 µM, first compound 3.16 µM
[30] = second compound 1 µM, first compound 10 µM
[31] = second compound 3.16 µM, first compound 0.0316 µM
[32] = second compound 3.16 µM, first compound 0.1 µM
[33] = second compound 3.16 µM, first compound 0.316 µM
[34] = second compound 3.16 µM, first compound 1 µM
[35] = second compound 3.16 µM, first compound 3.16 µM
[36] = second compound 3.16 µM, first compound 10 µM
[37] = second compound 10 µM, first compound 0.0316 µM
[38] = second compound 10 µM, first compound 0.1 µM
[39] = second compound 10 µM, first compound 0.316 µM
[40] = second compound 10 µM, first compound 1 µM
[41] = second compound 10 µM, first compound 3.16 µM
[42] = second compound 10 µM, first compound 10 µM
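Note: viability read after seven days of drug exposure.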
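Throughout, for viability, T/C: 100% = DMSO vehicle control wells.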

O=C(c1cc(Cc2n[nH]c(=O)c3ccccc23)ccc1F)N1CCN(C(=O)C2CC2)CC1 + CN1CCN(c2cc(C(=O)Nc3cc4cc(-c5cnn(C)c5)ccc4cn3)ccn2)CC1
active: viability, T/C [25] 1.69% | viability, T/C [26] 1.71% | viability, T/C [27] 1.98% | viability, T/C [28] 1.94% | viability, T/C [29] 2.27% | viability, T/C [30] 1.74% | viability, T/C [31] 0.26% | viability, T/C [32] 0.21% | viability, T/C [33] 0.25% | viability, T/C [34] 0.1% | viability, T/C [35] 0.36% | viability, T/C [36] 0.49% | viability, T/C [37] 0.11% | viability, T/C [38] 0.21% | viability, T/C [39] 0.24% | viability, T/C [40] 0.17% | viability, T/C [41] 0.26% | viability, T/C [42] 0.28%
4050 nM: IC50 [1]
< 31.6 nM: IC50 [2] | IC50 [3] | IC50 [4] | IC50 [5] | IC50 [6]
inactive: viability, T/C [7] 76.9% | viability, T/C [8] 76.8% | viability, T/C [9] 65.2% | viability, T/C [10] 70.5% | viability, T/C [11] 55.5% | viability, T/C [12] 29.6% | viability, T/C [13] 46.9% | viability, T/C [14] 50.8% | viability, T/C [15] 42.5% | viability, T/C [16] 49.2% | viability, T/C [17] 36.4% | viability, T/C [18] 19.4% | viability, T/C [19] 20.6% | viability, T/C [20] 24.1% | viability, T/C [21] 19.9% | viability, T/C [22] 19.9% | viability, T/C [23] 18.9% | viability, T/C [24] 16.4%

CCCS(=O)(=O)Nc1ccc(F)c(C(=O)c2c[nH]c3ncc(-c4ccc(Cl)cc4)cc23)c1F + CNC(=O)c1ccc(Nc2nc(OC3CCCC3)c3c(-c4ccc5nc(C)oc5c4)c[nH]c3n2)c(OC)c1
8550 nM: IC50 [1]
inactive: viability, T/C [7] 89.8% | viability, T/C [8] 89.2% | viability, T/C [9] 92.1% | viability, T/C [10] 103% | viability, T/C [11] 98.6% | viability, T/C [12] 43% | viability, T/C [13] 31.2% | viability, T/C [14] 32.5% | viability, T/C [15] 29.6% | viability, T/C [16] 29.1% | viability, T/C [17] 35.8% | viability, T/C [18] 33.8% | viability, T/C [19] 19.8% | viability, T/C [20] 18% | viability, T/C [21] 20.9% | viability, T/C [22] 19.3% | viability, T/C [23] 24.4% | viability, T/C [24] 26.1% | viability, T/C [25] 25.1% | viability, T/C [26] 15.8% | viability, T/C [27] 18.2% | viability, T/C [28] 22% | viability, T/C [29] 19.2% | viability, T/C [30] 18.1% | viability, T/C [31] 15.2% | viability, T/C [32] 15.8% | viability, T/C [33] 19.3% | viability, T/C [34] 19.1% | viability, T/C [35] 22.4% | viability, T/C [36] 15.5% | viability, T/C [37] 17.5% | viability, T/C [38] 18.8% | viability, T/C [39] 17.4% | viability, T/C [40] 18.3% | viability, T/C [41] 23.9% | viability, T/C [42] 17.2%
< 31.6 nM: IC50 [2] | IC50 [3] | IC50 [4] | IC50 [5] | IC50 [6]

COc1c(OCCCN2CCOCC2)ccc2c3n(c(=NC(=O)c4cnc(N)nc4)nc12)CCN3 + CN1CCN(c2cc(C(=O)Nc3cc4cc(-c5cnn(C)c5)ccc4cn3)ccn2)CC1
inactive: viability, T/C (second compound 0.0316 µM, first compound 0.00316 µM) 76.1% | viability, T/C (second compound 0.0316 µM, first compound 0.01 µM) 59.6% | viability, T/C [7] 39.2% | viability, T/C [8] 21.2% | viability, T/C (second compound 0.1 µM, first compound 0.00316 µM) 55.8% | viability, T/C (second compound 0.1 µM, first compound 0.01 µM) 43.5% | viability, T/C [13] 29.5% | viability, T/C [14] 17.6% | viability, T/C (second compound 0.316 µM, first compound 0.00316 µM) 23.9% | viability, T/C (second compound 0.316 µM, first compound 0.01 µM) 19.4% | viability, T/C [19] 15.1%
5.43 nM: IC50 [2]
< 3.16 nM: IC50 [3] | IC50 [4] | IC50 [5] | IC50 [6]
17.3 nM: IC50 [1]
active: viability, T/C [9] 7.23% | viability, T/C [10] 1.32% | viability, T/C [15] 6.5% | viability, T/C [16] 1.24% | viability, T/C [20] 8.98% | viability, T/C [21] 2.42% | viability, T/C [22] 0.55% | viability, T/C (second compound 1 µM, first compound 0.00316 µM) 2.31% | viability, T/C (second compound 1 µM, first compound 0.01 µM) 2.19% | viability, T/C [25] 1.42% | viability, T/C [26] 0.41% | viability, T/C [27] 0.11% | viability, T/C [28] 0.13% | viability, T/C (second compound 3.16 µM, first compound 0.00316 µM) 0.09% | viability, T/C (second compound 3.16 µM, first compound 0.01 µM) 0.16% | viability, T/C [31] 0.14% | viability, T/C [32] 0.07% | viability, T/C [33] 0.08% | viability, T/C [34] 0.13% | viability, T/C (second compound 10 µM, first compound 0.00316 µM) 0.05% | viability, T/C (second compound 10 µM, first compound 0.01 µM) 0.24% | viability, T/C [37] 0.16% | viability, T/C [38] 0.09% | viability, T/C [39] 0.29% | viability, T/C [40] 0.16%

CC(=O)O[C@H]1C(=O)[C@@]2(C)[C@H]([C@H](OC(=O)c3ccccc3)[C@]3(O)C[C@H](OC(=O)[C@H](O)[C@@H](NC(=O)c4ccccc4)c4ccccc4)C(C)=C1C3(C)C)[C@]1(OC(C)=O)CO[C@@H]1C[C@@H]2O
inactive: viability, T/C (compound 0.0316 µM) 12.8% and 11.6% | viability, T/C (compound 0.1 µM) 12% | viability, T/C (compound 0.316 µM) 11.3% and 13.4% | viability, T/C (compound 1 µM) 12.2% and 10.1% | viability, T/C (compound 3.16 µM) 13.7% and 12.3% | viability, T/C (compound 10 µM) 15.3% and 14.2%
< 31.6 nM: IC50 (curve of compound)
